The values below come from article PMC3253173 (Free radical biology & medicine, 2011).

What is called Kd is the concentration at which binding is half-saturated. Low readings indicate a tighter complex, high ones a looser complex.

The target in this assay is T1, gp91phox (Homo sapiens, UniProt P04839).
T1 sequence (P04839 2-570): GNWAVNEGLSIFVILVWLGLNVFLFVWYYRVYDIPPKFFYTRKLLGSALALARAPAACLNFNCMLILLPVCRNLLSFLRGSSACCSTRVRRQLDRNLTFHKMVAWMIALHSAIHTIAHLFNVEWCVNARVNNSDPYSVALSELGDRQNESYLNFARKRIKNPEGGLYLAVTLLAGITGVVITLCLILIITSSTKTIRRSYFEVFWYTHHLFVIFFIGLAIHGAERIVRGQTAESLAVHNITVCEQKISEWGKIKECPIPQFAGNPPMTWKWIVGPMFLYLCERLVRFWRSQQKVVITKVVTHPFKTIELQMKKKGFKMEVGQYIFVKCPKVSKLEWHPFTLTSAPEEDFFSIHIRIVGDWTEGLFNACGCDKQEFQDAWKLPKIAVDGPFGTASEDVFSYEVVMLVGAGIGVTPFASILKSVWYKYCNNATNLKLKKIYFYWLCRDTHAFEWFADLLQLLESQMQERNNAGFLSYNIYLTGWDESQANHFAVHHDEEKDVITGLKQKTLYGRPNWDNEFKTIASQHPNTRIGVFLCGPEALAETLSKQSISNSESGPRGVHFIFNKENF
T1 sequence (P13498 2-195 partner): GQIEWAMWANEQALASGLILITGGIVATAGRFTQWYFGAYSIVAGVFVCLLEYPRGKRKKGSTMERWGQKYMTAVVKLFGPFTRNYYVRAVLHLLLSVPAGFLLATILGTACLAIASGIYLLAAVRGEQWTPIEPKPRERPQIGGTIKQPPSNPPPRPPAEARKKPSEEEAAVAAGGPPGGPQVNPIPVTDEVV
In words: saturation radioligand binding on COS-cytob558 membranes.

For `C=C(C)[C@H]1Cc2c(ccc3c2O[C@@H]2COc4cc(OC)c(OC)cc4[C@@H]2C3=O)O1` [rotenone], binding was characterised by a dissociation constant (Kd) of 0.0212 ± 0.00347 µM.
